According to patent US20120220520A1, “BIOAVAILABLE COMBINATIONS FOR HCV TREATMENT” (priority 2006, published 2012):
Where “and” joins values, the source holds several entries; their conditions need not be identical. Identical values can stand only once.

Test: In vitro metabolic blocking of HCV NS3/4a protease inhibitors by compound of formula (II) in human liver microsomes
Assay type: in vitro ADME
Settings: for % Detected Compound, Incubation time: 30′, Compound of formula (II) / % Detected Compound, Incubation time: 120′, Compound of formula (II): 3 μM test compound + 10 μM compound of formula (II); for % Detected Compound, Incubation time: 30′, Compound of formula (II) / % Detected Compound, Incubation time: 120′, Compound of formula (II) / % Detected Compound, Incubation time: 30′, No Booster / % Detected Compound, Incubation time: 120′, No Booster: human liver microsomes 1 mg/ml, 37° C., % of initial concentration; for % Detected Compound, Incubation time: 30′, Compound of formula (II) / % Detected Compound, Incubation time: 30′, No Booster: 30 min; for % Detected Compound, Incubation time: 120′, Compound of formula (II) / % Detected Compound, Incubation time: 120′, No Booster: 120 min; for % Detected Compound, Incubation time: 30′, No Booster / % Detected Compound, Incubation time: 120′, No Booster: 3 μM test compound
Protocol: Different HCV NS3/4a protease inhibitors were tested in a metabolic blocking experiment using 3 μM test compound together with 10 μM of compound of formula (II) acting as a cytochrome P450 inhibitor (or booster).
Test compounds and compound of formula (II) were added to human liver microsomes (protein concentration 1 mg/ml) suspended in potassium phosphate buffer (pH=7.4), to get final reaction mixture concentrations of 3 μM test compound and 10 μM of compound of formula (II). In the non-boosted parallel reactions, compound of formula (II) was not added. Boiled human liver microsomes were used for blank experiments. After addition (in a 1:3 ratio) of a cofactor mixture consisting of β-nicotinamide adenine dinucleotide phosphate (β-NADP, 0.5 mg/ml, 653.2 μM), D-Glucose-6-phosphate (2 mg/ml, 7.1 mM), Glucose-6-phosphate dehydrogenase (1.5 U/ml) in 2% NaHCO3, the reaction mixture was incubated at 37° C. for 30 or 120 minutes after which the reaction was stopped by increasing the temperature to 95° C. Test compound concentrations were determined using HPLC-MS.
Values are percentages of test compound detected after the indicated incubation times as compared to the initial test compound concentration. In Table 3, each value is the mean of the results of two independent experiments. In Table 4, each value is the result of an independent experiment.

[1] = mean of two independent experiments
[2] = each value one independent experiment

| Structure (SMILES) | % Detected Compound, Incubation time: 30′, Compound of formula (II) [1] | % Detected Compound, Incubation time: 120′, Compound of formula (II) [1] | % Detected Compound, Incubation time: 30′, No Booster [1] | % Detected Compound, Incubation time: 120′, No Booster [1] | % Detected Compound, Incubation time: 30′, Compound of formula (II) [2] | % Detected Compound, Incubation time: 120′, Compound of formula (II) [2] | % Detected Compound, Incubation time: 30′, No Booster [2] | % Detected Compound, Incubation time: 120′, No Booster [2] | blocking of test compound metabolisation (10 μM compound of formula (II) added to 3 μM test compound, human liver microsomes) |
| --- | --- | --- | --- | --- | --- | --- | --- | --- | --- |
| COc1ccc2c(O[C@@H]3C[C@H]4C(=O)N[C@]5(C(=O)O)C[C@H]5/C=C\CCCCC[C@H](NC(=O)OC5CCCC5)C(=O)N4C3)cc(-c3csc(NC(C)C)n3)nc2c1 [BILN-2061, reference compound] | 163% | 128% | 129% | 76% | – | – | – | – | – |
| COc1ccc2c(O[C@@H]3C[C@H]4C(=O)N[C@]5(C(=O)NS(=O)(=O)C6CC6)C[C@H]5/C=C\CCCCN(C)C(=O)[C@@H]4C3)cc(-c3nc(C(C)C)cs3)nc2c1 [Compound 7] | 166% | 160% | 141% | 48% | – | – | – | – | – |
| COc1ccc2c(O[C@@H]3C[C@H]4C(=O)N[C@]5(C(=O)NS(=O)(=O)C6CC6)C[C@H]5/C=C\CCCCN(C)C(=O)[C@@H]4C3)cc(-c3nc(C(C)C)cs3)nc2c1C [Compound 13] | – | – | – | – | 43% and 83% | 51% and 95% | 90% and 87% | 89% and 82% | – |
| COc1ccc2c(O[C@@H]3C[C@H]4C(=O)N[C@]5(C(=O)NS(=O)(=O)C6CC6)C[C@H]5/C=C\CCCCCNC(=O)N4C3)cc(-c3nc(C(C)C)cs3)nc2c1 [Compound 18] | 131% | 196% | 42% | 0% | – | – | – | – | – |
| COc1ccc2c(O[C@@H]3C[C@H]4C(=O)N[C@]5(C(=O)NS(=O)(=O)C6CC6)C[C@H]5/C=C\CCCCN(C)C(=O)N4C3)cc(-c3nc(C(C)C)cs3)nc2c1 [Compound 21] | 151% | 135% | 109% | 25% | – | – | – | – | – |
| COc1ccc2c(O[C@@H]3C[C@H]4C(=O)N[C@]5(C(=O)NS(=O)(=O)C6CC6)C[C@H]5/C=C\CCCCCCC(=O)N4C3)cc(-c3nc(C(C)C)cs3)nc2c1 [Compound 26] | 128% | 101% | 16% | 0% | – | – | – | – | – |
| CC(C)CN(C[C@H](O)[C@@H](Cc1ccccc1)NC(=O)OCc1cncs1)S(=O)(=O)c1ccc2nc(N)oc2c1 [compound of formula (II)] | – | – | – | – | – | – | – | – | almost complete blocking |
